{"source": "patent US20240325394A1", "about": "“SALT AND CRYSTAL FORM OF NITROGEN-CONTAINING HETEROCYCLIC DERIVATIVE, PREPARATION METHOD THEREFOR AND APPLICATION THEREOF” (SHANGHAI HANSOH BIOMEDICAL CO., LTD., priority 2020, published 2024)", "key": {"[1]": {"experiment": "Plasma protein binding rate test, human plasma", "assay_type": "in vitro ADME", "conditions": "37° C.", "experimental": "(§1) The embodiment compound was prepared into a 1 mM solution A with DMSO.\n(§2) Solution A was added to the plasma solution and prepared into a 5 μM solution B.\n(§3) • 1) 200 μL of solution B was added into the membrane. • 2) 350 μL of PBS was added to the outside of the membrane. • 3) Incubating in a 37° C. water bath for 6 hours. • 4) The samples were processed for dilution and detected by mass spectrometry.\n(§4) • instrument: Shimadzu LC-20 AD; • chromatographic column: phenomenex Gemiu® C18 (50*4.6 mm, 5 UM particle size); • mobile phase: A: Acetonitrile, B: 0.1% formic acid solution 0-0.5 min: 5% A→90% A, 2.0-2.1 min: 90% A→5% A; flow rate: 0.8 mL/min; running time: 5.0 min; injection volume: 5 μL.\n(§5) • instrument: API4000 Liquid Chromatography-Mass Spectrometry, AB, USA; • the ion source was electrospray ionization source (ESI); • the temperature of dry gas (N2) was 500° C.; • electrospray voltage was 5500V; • the detection method was positive ion detection; • the scanning mode was selective response monitoring (MRM); the scanning time was 0.1 s."}, "[2]": {"test_system": "phosphorylated ERK in Mia PaCa-2 cells", "experiment": "Inhibition of phosphorylated ERK in Mia PaCa-2 cells (LANCE Ultra)", "assay_type": "cell-based, human", "conditions": "2 hours treatment; read-out: Mia PaCa-2 pERK IC50", "experimental": "When Mia PaCa-2 cells were cultured to the appropriate fusion level, Mia PaCa-2 cells were collected, and the cell density was adjusted to 1×10^6/mL using complete culture medium, the cell suspension was spread on a 96-well plate, 50 μL per well, and placed adherent to the wall in a 37° C., 5% CO2 incubator overnight, compound solutions with different concentrations were prepared using DMSO and complete culture medium, a solvent control was set, the compound solution was added to a 96-well plate, 25 μL per well, and placed in a 37° C., 5% CO2 incubator for 2 hours of continuous culture, the supernatant was discarded from the cell culture plate, 50 μL of lysis solution was added to each well, and lysing was performed for 30 minutes by shaking at room temperature, then the mixture was centrifuged at 1000 rpm for 1 minute, 15 μL of supernatant was transferred to 384 well plate, 5 μL of detection mixture (Eu-labeled anti-ERK1/2 (T202-Y204) antibody with final concentration of 0.5 nM and ULight labeled anti-ERK1/2 antibody with final concentration of 5 nM) was added to each well, centrifuged at 1000 rpm for 1 minute and mixed uniformly, the reaction was carried out overnight at room temperature, the plate was read with BioTek Synergy H1, and the signal values was detected at 620 nm and 665 nm emission wavelengths by time-resolved fluorescence program. […]"}, "[3]": {"test_system": "human pancreatic cancer cell MiaPaca 2 xenograft (CDX)", "experiment": "Tumor inhibition on MiaPaca 2 transplanted tumor model", "assay_type": "in vivo, BALB/c nude mice", "conditions": "oral 6 mg/kg QD×3w", "experimental": "MiaPaca 2 cells were removed from the cell bank, revived and added to DMEM medium (containing 10% FBS, 1% Glu, 1% P/S) and incubated in a CO2 incubator (incubator temperature was 37° C., CO2 concentration was 5%). After the cells were spread to 80-90% of the bottom of the culture flask, the cells were continued to be cultured in the CO2 incubator. The process was repeated until the number of cells met the in vivo pharmacological inoculation requirement, and the cells in logarithmic growth period were collected and counted with an automatic cell counter, resuspended with PBS and Matrigel (volume ratio 1:1) according to the count results, made into a cell suspension (the density was 8×10^7/mL), and placed in an ice box for use.\nBALB/c nude mice, female, 6-8 weeks old, weighing about 18-22 g. The mice were kept in an environment free of special pathogens and in a single ventilated cage with 5 mice in each cage. […] Nude mice were labeled with disposable universal ear tags for mice and rats before the start of the experiment, and the skin of the inoculation site was disinfected with 75% medical alcohol before inoculation, 0.1 mL (containing 8*10^6 cells) of MiaPaca 2 tumor cells were inoculated subcutaneously on the right back of each mouse. When the tumor volume reached 100-200 mm^3, the group administration was started.\nThe tumor volume (mm^3) was measured with vernier caliper twice a week, the calculation formula was V=[…], wherein D and d were the long and short diameter of the tumor, respectively. The anti-tumor efficacy was determined by dividing the average tumor increased volume of the compound-treated animals by the average tumor increased volume of the untreated animals. The formula of tumor inhibition rate is: TGI (%)=1−[(Vt−V0) administration group/(Vt−V0) solvent control group]*100%. After the experiment, all animals were euthanized."}, "[4]": {"test_system": "NCI-H358 cells (KRAS G12C mutant)", "experiment": "Inhibition of NCI-H358 cell proliferation (CellTiter-Glo, 72 h)", "assay_type": "cell-based, human", "experimental": "(§6) When NCI-H358 or Mia PaCa-2 cells were cultured to the appropriate fusion level, the NCI-H358 or Mia PaCa-2 cells were collected, and the cells were adjusted to the appropriate cell concentration using a complete medium, and the cell suspension was spread in a 96-well plate, 90 μL per well, and placed in a 37° C., 5% CO2 incubator overnight; and compound solutions of different concentrations were prepared using DMSO and culture medium; and a solvent control was set, the compound solution was added to a 96-well plate, 10 μL per well, at 37° C. in a 5% CO2 incubator for 72 hours; CellTiter-Glo solution was added thereto and the mixture was mixed well by shaking, incubated for 10 min in the dark, and read by BioTek Synergy H1 microplate reader.\n(§7) The luminescence signal values were used to calculate the inhibition rate, the concentration and the inhibition rate were fitted to a nonlinear regression curve using Graphpad Prism software, then the IC50 value was obtained."}, "plasma protein [5]": {"test_system": "plasma protein", "experiment": "Plasma protein binding rate test, rat plasma", "assay_type": "in vitro ADME", "conditions": "5 μM, 37° C., 6 hours", "experimental": "as §1, §2, §3, §4, §5"}, "plasma protein [6]": {"test_system": "plasma protein", "experiment": "Plasma protein binding rate test, mouse plasma", "assay_type": "in vitro ADME", "conditions": "5 μM, 37° C., 6 hours", "experimental": "as §1, §2, §3, §4, §5"}, "plasma protein [7]": {"test_system": "plasma protein", "experiment": "Plasma protein binding rate test, human plasma", "assay_type": "in vitro ADME", "conditions": "5 μM, 37° C., 6 hours", "experimental": "as §1, §2, §3, §4, §5"}, "[8]": {"test_system": "Mia PaCa-2 cells (KRAS G12C mutant)", "experiment": "Inhibition of Mia PaCa-2 cell proliferation (CellTiter-Glo, 72 h)", "assay_type": "cell-based, human", "experimental": "as §6, §7"}}}
{"compound": "C=CC(=O)N1C[C@H](C)N(c2nc(=O)n(-c3c(SC)ccnc3C(C)C)c3nc(-c4c(N)ccc(Cl)c4F)c(Cl)cc23)C[C@H]1C", "note": "(atropisomer, axis not shown) [Embodiment 13-1, P-4-((2S,5R)-4-Acryloyl-2,5-dimethylpiperazin-1-yl)-7-(6-amino-3-chloro-2-fluorophenyl)-6-chloro-1-(2-isopropyl-4-(methylthio)pyridin-3-yl)pyrido[2,3-d]pyrimidin-2(1H)-one]", "values": [{"measurement": "fraction unbound at 6 h, 5 μM", "setting": "[1]", "result": 0.003}]}
{"compound": "P-4-((2S,5R)-4-acryloyl-2,5-dimethylpiperazin-1-yl)-6-fluoro-7-(2-fluoro-6-hydroxyphenyl)-1-(2-isopropyl-4-(methylthio)pyridin-3-yl)pyrido[2,3-d]pyrimidin-2(1H)-one [Embodiment 2-1]", "values": [{"measurement": "IC50", "setting": "[2]", "result": 38, "unit": "nM"}, {"measurement": "Tumor volume (mm^3, Mean ± SD) Day 0", "setting": "[3]; Day 0", "result": "177 ± 38", "unit": "mm^3"}, {"measurement": "TGI (%) Day 21", "setting": "[3]; Day 21", "result": 162.36, "unit": "%"}, {"measurement": "Tumor volume (mm^3, Mean ± SD) Day 21", "setting": "[3]; Day 21", "result": "67 ± 34", "unit": "mm^3"}, {"measurement": "ΔT/ΔC (%) Day 21", "setting": "[3]; Day 21", "result": "−62.36", "unit": "%"}, {"measurement": "IC50", "setting": "[4]", "result": 35, "unit": "nM"}, {"measurement": "Plasma protein binding rate, Rat", "setting": "plasma protein [5]", "result": 90.5}, {"measurement": "Plasma protein binding rate, Mouse", "setting": "plasma protein [6]", "result": 88.4}, {"measurement": "Plasma protein binding rate, Human", "setting": "plasma protein [7]", "result": 98.0}, {"measurement": "IC50", "setting": "[8]", "result": 29, "unit": "nM"}]}
